Experimental data reported in article PMC8129133, “Polymer-free corticosteroid dimer implants for controlled and sustained drug delivery” (Nature Communications, 2021).
≈ marks a conversion by molar mass, not a printed value.

Assays:
[1] = tested on: vascular endothelial growth factor (VEGF) induced blood-retinal barrier breakdown; experiment: Rabbit pharmacodynamics, VEGF-induced vascular leakage; format: in vivo, Dutch Belted rabbits
Experimental: Pharmacodynamics. Rabbit pharmacodynamics studies were performed at Absorption Systems California (San Diego, CA, USA). All studies were conducted in compliance with relevant ethical regulations, including the USDA Animal Welfare Act (i.e., relevant sections of Section 9, Part 1, 2, and 3 of the Code of Federal Regulations) and in compliance with Absorption Systems’ Animal Welfare Assurance filed with the National Institutes of Health. Protocols were reviewed and approved by Absorption Systems’ Institutional Animal Care and Use Committee (IACUC) prior to the initiation of procedures. Treatment of animals was in accordance with conditions specified in the Guide for Care and Use of Laboratory Animals (NRC, 2011, National Academy Press). Animals were anesthetized with intramuscular ketamine hydrochloride (15-20 mg/kg) and xylazine (5 mg/kg) prior to test article injection or vascular leakage induction. The eye area was surgically prepped with 5% betadine and rinsing with balanced salt solution, followed by administration of 1–2 drops of topical proparacaine hydrochloride (0.5%). […] Test articles (27 G × 6 mm, 30 G × 6 mm, and 32 G × 6 mm Dex-TEG-Dex extruded rods, or Ozurdex®) were injected intravitreally in Dutch Belted rabbits (male, 1.84–2.49 kg, 5–6 months) on Day 0 and vascular leakage was induced by an intravitreal injection of VEGF (500 ng/eye) at acute and chronic timepoints (1 week, 2.5, 4.5, 6, 9, 12, and/or 18 months) post-implantation. Post-injection analgesia was provided by 0.02-0.05 mg/kg IM/SC buprenorphine. Negative control rabbits received a sham injection while positive control rabbits received a 2 mg solution dose of triamcinolone acetonide (Kenalog-40). Ophthalmic exams, including fundus microscopy and slit lamp microscopy, were carried out over the 3 days post-VEGF induction and vascular leakage was measured by fluorescein angiography on the third day post-VEGF induction. Eyes were graded based on fundus and fluorescein angiography images using a scoring system as follows[76]: 0 – major vessels straight, some tortuosity of smaller vessels, no vessel dilation; 1 – increased tortuosity of major vessels and/or some vessel dilation; 2 – leakage between major vessels, significant vessel dilation; 3 – leakage between major and minor vessels, minor vessels still visible; and 4 – leakage between major and minor vessels, minor vessels poorly/not visible.

[2] = Maximum soluble concentration in culture medium (HPLC); format: physicochemical; details: plasma or biological fluid, kinetic from ethanol stock, fibroblast growth medium, 1% ethanol, sterile filtered
Experimental: Human dermal fibroblasts were chosen for general cytotoxicity assessment as they are commonly employed in standard cytotoxicity testing outlined in ISO10993 guidelines. […] The resulting solution was sterile filtered (Pall) to remove any non-soluble components and the concentration of Dex-TEG-Dex was confirmed by HPLC (6.7 µg/ml). The […] control was regular culture medium with 1% ethanol, while the negative control was culture medium containing 5% DMSO. Following 24 h exposure to the different test groups, a WST-1 assay was performed. Briefly, WST-1 reagent (Roche) was mixed with growth medium at a 1:10 dilution, added to test groups, and incubated at 37 °C and 5% CO2 for 1 h. Supernatant was transferred to a new well and absorbance was measured at 450 nm. After 24 h exposure to test groups, samples were also visualized following Diff-Quik staining following the manufacturer’s recommended protocol (Siemens). Samples were imaged with a Leica DMIL microscope equipped with a Canon PowerShot S70 camera with ZoomBrowser Ex 5.0 software (Canon, version 5.0.0.142).

[3] = rabbit, in vivo
Experimental: Analysis of samples was conducted using a SCIEX API 5000 mass spectrometer (Applied Biosystems/MDS Sciex), Shimadzu LC-20ADXR HPLC pumps, Shimadzu SCL-10A controller, and HTS-PAL autoinjector (CTC Analytics). Chromatography was performed using a Waters X-Bridge C-18 (3.5 µm; 100 × 2.1 mm) column equipped with a Phenomenex KrudKatcher ULTRA HPLC In-Line Filter (Part AF0-8497). The column was held at a temperature of 40 °C, while the autosampler compartment was maintained at 4 °C. Mobile phases consisted of: (A) 95:5 H2O:MeOH with 2 mM Ammonium Acetate (NH4OAc) and (B) 85:10:5 MeOH:H2O:MeCN with 2 mM NH4OAc. A gradient elution profile was employed, following the trend of: (0 min 30% B), (0.50 min 30% B), (2.50 min 65% B), (2.51 min 100% B), (4.50 min 100% B), (4.51 min 30% B), (6.50 min 30% B). Flow was constant at 0.6 mL min^-1 with an injection volume of 10 µL. For MS parameters, the system was operated in positive ion mode with a TurboIonSpray probe monitoring transitions (±0.2 AMU) of m/z 393.2 → 373.2 for Dex and 397.3 → 377.2 for the Dex-d4 deuterated internal standard. Analyst Version 1.4.2 (Applied Biosystems-MDS Sciex) was used for instrument control, data acquisition, and peak integrations, while calculations including peak area ratios, standard curve regressions, sample concentration values, and descriptive statistics were performed with the assistance of the ALIS2004 validated LIMS.
Dex and internal standard (Dex-d4) were extracted from vitreous humor on ice using protein precipitation. Samples were initially centrifuged at approximately 1500 rcf for 5 min to remove any interfering particulates. Stepwise, the protocol for extraction from vitreous humor was to (1) pipette 50 µL of vitreous humor into an extraction tube; (2) add 13 µL H2O and vortex to mix; (3) add 25 µL internal standard spiking solution (100 ng/mL Dex-d4 in a 1:1 solvent of MeOH:H2O); (4) add 25 µL of make-up reagent (1:1 mixture of MeOH:H2O); (5) vortex mix for 5-10 s at a speed setting of 4 or 5; (6) centrifuge at ~60 rcf for 2 min; (7) add 300 µL of 9:1 MeOH:5 mM NH4OAc at pH 7 to precipitate proteins; (8) cap and vortex mix at full speed for 2 min; (9) Centrifuge at approximately 2700 rcf for 5 min; (10) transfer 300 µL of supernatant to a separate tube; (11) vortex the collected supernatant for 30 s at a low to moderate speed; (12) centrifuge at ~1500 rcf for 5 min; (13) store prepared extract at 4 °C until analysis by LC-MS/MS.
Pharmacokinetics. […] Animals were anesthetized with ketamine (up to ~50 mg/kg) and xylazine (up to ~10 mg/kg). Eyes were surgically prepared before intravitreal procedures with 5% betadine and topical anesthetic eye drops (proparacaine hydrochloride, 0.5%). Prior to test article administration, pupils were dilated with topical application of one drop each of 10% phenylephrine and 1% tropicamide on each cornea.
Implants (30 G × 6 mm Dex-TEG-Dex extruded rods, Ozurdex®) were injected (30 G needle for Dex-TEG-Dex, 22 G needle for Ozurdex®) intravitreally into the eyes of New Zealand White rabbits (female, 1.5–2.5 kg) with terminal timepoints of 1 and 2 weeks and 1, 2, 3, 6, 9, 12, and 14 months. Ocular tissues and plasma were collected at each timepoint and analyzed for Dex by LC/MS/MS. Whole globe eyes were collected into centrifuge tubes and remained frozen for a minimum of 24 h before dissection and tissue collection. During dissection, vitreous humor containing any remaining test article was collected frozen into pre-weighed centrifuge tubes and stored at −80 °C until further processing.

SMILES: C[C@@H]1C[C@H]2[C@@H]3CCC4=CC(=O)C=C[C@]4(C)[C@@]3(F)[C@@H](O)C[C@]2(C)[C@@]1(O)C(=O)COC(=O)OCCOCCOCCOC(=O)OCC(=O)[C@@]1(O)[C@H](C)C[C@H]2[C@@H]3CCC4=CC(=O)C=C[C@]4(C)[C@@]3(F)[C@@H](O)C[C@@]21C [Dex-TEG-Dex]
- efficacy against VEGF-induced changes ([1]; 1 week, Dex-TEG-Dex as 30 G × 6 mm implant): efficacious
- duration of efficacy ([1]; 27 G × 6 mm implant, all time points tested): ≥ 18 months
- duration of inhibition of VEGF-induced effects ([1]; 32 G × 6 mm implant): ≥ 4.5 months
- efficacy against VEGF-induced changes ([1]; 32 G × 6 mm implant, 6 months): reduced efficacy
- duration of efficacy ([1]; Dex-TEG-Dex as 30 G × 6 mm implant, VEGF challenge): 9–12 months
- duration of efficacy ([1]; Dex-TEG-Dex as 30 G × 6 mm implant, VEGF challenge, listed as dexamethasone dimer): > 6 months
- solubility [2]: 6.7 µg/mL (≈ 6.79 µM)
- time at which free Dex fell below limits of detection ([3]; female, New Zealand White): 14 months
- levels of dexamethasone in the aqueous humor [3]: below the limit of quantification for most samples
